No end group written: not given here.

Data set [1] relates to HEK293 cells. In words: Cycloheximide pulse-chase protein stability. The data set is classed as cell-based. As to conditions: HEK293 transiently transfected with C-terminal EGFP-tagged construct; 100ug/ml cycloheximide for the indicated time; western blot, Image J; n = 3/per group. Here is the method:
Cells were lysed with RIPA Lysis and Extraction Buffer (ThermoFisher Scientific) plus the Halt protease & phosphatase inhibitor cocktail (ThermoFisher Scientific). The lysates were incubated on ice for 10 min then homogenized using a sonicator, and the supernatant was collected by centrifugation at 15,000 x g for 15 min at 4 °C. Protein content in the cellular lysates was quantified using the Pierce™ BCA Protein Assay Kit (ThermoFisher Scientific). Predetermined amounts of proteins (10-30μg) were separated on 8-16% SDS-PAGE gels and blotted onto PVDF membranes (Biorad, Hercules, CA, USA). Membranes were incubated with primary antibody at 4 °C overnight according to the manufacturer’s instructions. After several washes with Tris-buffered saline containing 0.1% Tween-20, membranes were incubated at room temperature for 1 hr with the appropriate HRP-conjugated secondary antibody. Clarity™ Western ECL substrate (Biorad) was used for detecting specific bands. Membranes were imaged on a Bio-Rad ChemiDoc XRS^+ imager. If necessary, relative intensities of the bands in each condition were measured using Image J, a free software program provided by National Institute of Health (Bethesda, Maryland, USA).
Cycloheximide, an inhibitor of protein biosynthesis, was used to examine protein stability in cells. […] The protein quantity from western blot was examined with Image J.
(In general: A western blot detects proteins with antibodies after separation by electrophoresis.)

Data set [2] deals with dopamine levels in the striatum. In words: Striatal dopamine in MPTP-lesioned mice (HPLC with electrochemical detection). In kind it is in vivo. The note with it: C57BL/6 mice, MPTP 20 mg/kg, n = 8 per group. As to the method:
C57BL/6 male mice, 8 to 10 weeks of age were purchased from Jackson Labs (Bar Harbor, Maine). 1-methyl-4- phenyl- 1,2,3,6-tetrahydropyridine (MPTP) (Selleck Chemicals Co., Houston, TX) was prepared to a concentration of […] free-base in 0.9% saline on the day of use. C57BL/6 mice were injected with 20 mg/kg free-base MPTP. 8 days after the last injection of MPTP, mice were killed by cervical dislocation and the brain quickly removed and placed on wet ice. Striatal tissues for HPLC analysis and western immunoblotting were collected fresh corresponding to anatomical regions from bregma 1.20 to bregma 0.60, with borders dorsal to the anterior commissure, ventral to the corpus callosum, medial to the lateral ventricle, and 2.5 mm lateral from midline, and frozen at -80 °C until analysis. All procedures utilizing MPTP lesioning and tissue collection were approved by the USC IACUC.
Dopamine concentrations were determined according to an adaptation of Irwin et al. from the method of Kilpatrick et al.. […] The protein pellet was resuspended in 0.5 N NaOH and the total protein concentration determined using the BCA Protein Assay (Pierce, Rockford, IL), a Biotek Model Elx800 microplate reader (Biotek Instruments, Wincoski, VT) and KCjunior software. […]

Data set [3] has as its system HeLa expressing HA- EGFP- OMP25 (HA-MITO). In words: Rapid mitochondria immunoprecipitation, localization of synthetic SHLP2. In kind it is cell-based. The note with it: synthetic SHLP2 treatment, western blot. Here is the method: Mitochondria isolation from HeLa cells expressing HA-EGFP-OMP25 (HA-MITO) or myc-EGFP-OMP25 (CON-MITO) was performed according to the published article. Briefly, cells were lysed in KPBS buffer (136 mM KCl, 10 mM KH2PO4, pH 7.25) and homogenized with 25 strokes of a 2 ml homogenizer. The homogenate was spun down at 1000 g for 2 min. The supernatant was incubated with anti-HA magnetic beads on an end-over-end rotator for 3.5 min. The beads were washed with KPBS buffer, incubated for 10 min with lysis buffer (1% triton X-100 lysis buffer with protease inhibitor cocktail), and spun down at 17000 g for 10 min. The supernatants were used for western blot.

Regarding MGVRFFTLSTRFFPSVQRAVPLWTNS [K4R SHLP2], the “protein stability, pulse-chase” value in data set [1] is reported as “more stable than WT SHLP2”.

`CN1CC=C(c2ccccc2)CC1` [MPTP, 1-methyl-4-phenyl-1,2,3,6-tetrahydropyridine]: the “dopamine levels in the striatum, toxin alone” value in data set [2] was “significant decrease in dopamine levels”. With MGVKFFTLSTRFFPSVQRAVPLWTNS [WT SHLP2], the “mitochondrial localization of synthetic peptide” value in data set [3] is “localized in the mitochondria after 30 min of treatment”.

For the origin of these results see PMC11116102, “A naturally occurring variant of SHLP2 is a protective factor in Parkinson’s disease” (Molecular Psychiatry, 2024).
